Laboratory results: patent US20200375954A1, “THERAPEUTIC AGENT FOR FOOD COMPETENCE DISORDER IN STOMACH” (ZERIA PHARMACEUTICAL CO., LTD., priority 2002, published 2020)
Counter-ions that a name gives are not always drawn.

Experiments:
[1] = known side effect; cited from earlier work
[2] = tested on: adult male mongrel dog (gastric fundus); test: Barostat test in dog; format: in vivo; details: for Volume change of Air-bag / Activity of alleviating impaired gastric accommodation (in words): i.v.; for Volume change of Air-bag: 5 minutes after liquid test meal, mean air-bag volume after vs before agent, mean ± standard error; for Volume increase of air-bag, ΔmL: method of Example 1, N=1; for Activity of alleviating impaired gastric accommodation (in words): barostat test in dog
Experimental: A gastric fistula (KN-365, D-14-C from Natsume Seisakusyo Co., Ltd.) was installed permanently in the center of stomach anterior wall of an adult male mongrel dog, and was used for air-bag insertion.
The fistula-installed dog was abstained from food for not shorter than 18 hours, followed by opening the gastric fistula and washing inside stomach by infusion of saline into stomach, before starting experiment. This procedure was repeated 2 to 3 times as appropriate. The air-bag (maximal volume: about 750 mL) fabricated using a commercially available polyethylene bag was inserted into stomach through gastric fistula and fixed using a silicone plug, followed by connection to barostat instrument and starting measurement under nonrestraint condition. Volume change of the air-bag was recorded on both a recorder and a computer.
After insertion of the air-bag into stomach, the bag was once infused with air up to 500 mL, followed by immediate and complete air evacuation, and starting recording by adjusting initial inner pressure of the air-bag to be 6±2 mmHg. After stabilization for not shorter than 15 minutes, 50 mL of a liquid test meal (12.5 kcal, Besvion^RT from Fujisawa Pharmaceutical Co., Ltd.) dissolved in warm water (30 to 40° C.) was […] administered into stomach. Five minutes after administration of the test meal, a solvent and test agents were administrated intravenously. Mean air-bag volumes (mL) for each 5 minutes before administration of the test meal, along with before and after administration of the test agents were calculated using a computer analyzing system to compare differences in mean air-bag volumes (mL) before and after administration of the test agents.

[3] = tested on: patient with functional dyspepsia (stomach); test: Barostat test in human; format: in vivo
Experimental: A patient with functional dyspepsia, based on Rome II standard, was fasted overnight (for not shorter than 12 hours). Oral administration of 300 mg of a compound a, hydrochloride, and placebo has been conducted by a responsive doctor of clinical trial. Thirty minutes later, a polyvinyl adhesive plastic bag with dual ducts (1100 mL, maximal diameter: 17 cm, from Meditronic-Synetics Medical Ltd., Enfield, UK) was folded up to a small piece and introduced into stomach through mouth or nose, and the ducts were fixed on chin by an adhesive tape. The location of the bug in fundus of stomach was confirmed by radioscopy.
The polyvinyl tubing was connected to a computer controlled volume-replacement pressure regulator. This regulator can simultaneously monitor pressure and volume with sampling rate of 8 times per second, and also can load volume ramps and pressurizing steps with various rates. Trial subjects were kept in recumbent position and predetermined volume of air (300 mL) was infused for 2 minutes to expand the bug in stomach, and again the air was evacuated completely. After stabilization for 10 minutes, the trial subjects were allowed to keep relaxed by slightly skewing knees on a bed.
After 30 minutes of adaptation period, minimum invasive gastric dilatation pressure (MDP), that is, the minimum pressure to give not less than 30 mL of the bag inner volume, was measured by increasing inner pressure by 1 mmHg per minute. This pressure (MDP) […] equilibrates intraabdominal pressure. Then, pressure was increased from the MDP stepwisely with isobaric expansions by each 2 mmHg. At each pressure increase step, corresponding inner volume of stomach was recorded, and kept for 2 minutes. At the end of each expansion step, patients were asked to express feeling of stimulation at upper abdomen by scores from 0 to 6 with verbal explanation. The expansion procedure was terminated when inner volume of the bag reached to 1000 mL or the patient complained discomfort or soreness (score: 5 or 6).
Further, after 30 minutes of adaptation period, the pressure level was adjusted to the MDP+2 mmHg, and kept for 90 minutes. Thirty minutes later, a mixed liquid diet (200 mL, 300 kcal, protein 13%, carbohydrate 39%, Nutridrink™, Nutricia) was given by oral ingestion, followed by measurement of stomach tension over further 60 minutes.
Average inner volume of the balloon for each 2 minutes expansion period was obtained from the recorded value. […]
To evaluate stomach tension before and after meal, average volume of the balloon was measured continuously at every 5 minutes. The maximum relaxation value was obtained as difference between average volume before meal and the maximum volume after meal among average volumes measured at every 5 minutes after meal.

## COc1cc(N)c(Cl)cc1C(=O)NC1CCN(CCCOc2ccc(F)cc2)CC1OC (stereo not drawn) [Cisapride, reference compound]
[1]
  Extension of Q-T interval (adverse effect): serious side effect such as extension of Q-T interval
[2]; 0.3 mg/kg
  Volume change of Air-bag: 3.6 ± 25.0 mL

## COc1cc(O)c(C(=O)Nc2nc(C(=O)NCCN(C(C)C)C(C)C)cs2)cc1OC [Compound a, hydrochloride, 2-[N-(4,5-dimethoxy-2-hydroxybenzoyl)amino]-4-[(2-diisopropylaminoethyl)aminocarbonyl]-1,3-thiazole]
[3]; 300 mg, p.o.
  Effect on maximum relaxation value of stomach after meal (in words): significantly increased
[3]; 300 mg, p.o., N=17, after meal
  Change in max. relaxation volume: 24.3 ± 172.3 mL
  Max. relaxation volume after treatment: 313.4 mL
[3]; baseline of the 300 mg p.o. group, N=17, after meal
  Max. relaxation volume before treatment: 295.5 mL
[2]; 3 mg/kg
  Volume change of Air-bag: 50.8 ± 16.7 mL
[2]; 3 mg/kg, listed as compound a, hydrochloride
  Volume change of Air-bag: 50.8 mL
[2]; compound a 3 mg/kg i.v. vs cisapride 0.3 mg/kg i.v.
  Expansion effect compared with cisapride: surpassed that of cisapride

## COc1cc(Cl)c(C(=O)Nc2nc(C(=O)NCCN(C(C)C)C(C)C)cs2)cc1OC [Compound b, Maleate, 2-[N-(2-chloro-4,5-dimethoxybenzoyl)-amino]-4-[(2-diisopropylaminoethyl)aminocarbonyl]-1,3-thiazole]
[2]; 1 mg/kg i.v.
  Volume increase of air-bag, ΔmL: 29.7 mL
[2]
  Activity of alleviating impaired gastric accommodation (in words): excellent activity of alleviating impaired gastric accommodation

## COc1ccc(C(=O)Nc2nc(C(=O)NCCN(C(C)C)C(C)C)cs2)cc1OC [Compound c, hydrochloride, 2-[N-(4,5-dimethoxy-benzoyl)amino]-4-[(2-diisopropylaminoethyl)amino-carbonyl]-1,3-thiazole]
[2]; 1 mg/kg i.v.
  Volume increase of air-bag, ΔmL: 58.2 mL
[2]
  Activity of alleviating impaired gastric accommodation (in words): excellent activity of alleviating impaired gastric accommodation

## COc1cc(O)c(C(=O)Nc2cc(C(=O)NCCN(C(C)C)C(C)C)co2)cc1OC.O=C(O)/C=C\C(=O)O [Compound d, Maleate, 2-[N-(4,5-dimethoxy-2-hydroxybenzoyl)amino]-4-[(2-diisopropyl-aminoethyl)aminocarbonyl]furan]
[2]; 3 mg/kg i.v.
  Volume increase of air-bag, ΔmL: 11.4 mL
[2]
  Activity of alleviating impaired gastric accommodation (in words): excellent activity of alleviating impaired gastric accommodation
